# Laboratory results reported in patent US11578056B2, “Solid forms comprising (S)-2-(2,6-dioxopiperidin-3-yl)-4-((2-fluoro-4-((3-morpholinoazetidin-1-yl)methyl)benzyl)amino)isoindoline-1,3-dione and salts thereof, and compositions comprising and methods of using the same” (Celgene Corporation, priority 2019, dated 2023).
# Tested on: SU-DHL-4 cell line
# Assay: Cell proliferation and viability assay using SU-DHL-4 cell line (CellTiter-Glo, 1536-well)
# Format: cell-based
# Conditions: Homo sapiens; SU-DHL-4, 120 hours, Cell Titer-Glo luminescence
# Method: Cell Proliferation and Viability Assay Using SU-DHL-4 Cell Line: The following exemplary assay uses a DLBCL cell line, for example, the SU-DHL-4 cell line (Deutsche Sammlung von Mikroorganismen and Zellkulturen GmbH [DSMZ]: catalogue number ACC-495) at 120 hours post-treatment. The seeding density for SU-DHL-4 can be optimized to ensure assay linearity in 1536-well plates.
# Increasing concentrations (0.5 nM to 10 μM) of Compound 1 were each spotted in a 20-point dilution fashion (unevenly spaced data points) via an acoustic dispenser (EDC ATS-100) into an empty 1536-well plate. The DMSO concentration was kept constant for a final assay concentration of 0.1% DMSO. […] At the time when exposure of cells to compound began (to), initial viable cell number was assessed via Cell Titer-Gb® Luminescent Cell Viability Assay at a 1 vol: 2 vol ratio according to manufacturer's instructions (Promega Corporation, Madison, Wis.) by quantifying the level of luminescence generated by adenosine-5′-triphosphate (ATP) present in viable cells. After 120 hours, cell viability of the treated cells was assessed via Cell Titer-Gb® and read for luminescence. All growth inhibition curves were processed and evaluated using Activity Base (IDBS, Alameda, Calif.). […]
compound,measurement,value
"O=C1CC[C@H](N2C(=O)c3cccc(NCc4ccc(CN5CC(N6CCOCC6)C5)cc4F)c3C2=O)C(=O)N1 [Compound 1, (S)-2-(2,6-dioxopiperidin-3-yl)-4-((2-fluoro-4-((3-morpholinoazetidin-1-yl)methyl)benzyl)amino)isoindoline-1,3-dione]",IC50,< 200 nM
